Measured values: patent US9814732B2, “Ulipristal acetate for prevention and treatment of breast tumors” (LABORATOIRE HRA-PHARMA, priority 2012, dated 2017)

Key:
[1] = system: PR target genes (FASN, cyclin A, BCL2, ALPL); assay: qRT-PCR mRNA expression of PR target genes in T-47D cells; format: cell-based, human
Method: (§1) After seeding, cells were cultured for 24 h in serum and phenol red free medium. Then treatments were carried out in a phenol red free medium containing 5% dextran-charcoal stripped serum. Cells were treated with P or DEX (100 nM), alone or in combination with UPA, RU (1 nM to 1 μM) or CDB-3877 (100 nM). Control cells were treated with ethanol, at […] 1:1000 final ethanol concentration alone as vehicle or E2 (10 nM).
Total RNA was extracted using TriZOL Reagent (Invitrogen, Cergy-Pontoise, France).
2 μg of total RNA was subjected to reverse transcription (RT) using random primers for 1 h at 37° C. 2 μl of RT product was diluted (1:10) and subjected to quantitative PCR using sequence specific primers (300 nM) and Brillant SYBR GREEN QPCR master mix (Fermentas, Saint-Rémy-lès-Chevreuse, France) on an Mx3000P apparatus (Agilent Technologies, Massy, France). Conditions were 1 cycle at 95° C. for 10 min followed by 40 cycles at 95° C. for 30 sec, 60° C. for 1 min and 72° C. for 30 sec. Gene expression values were normalized to the housekeeping gene 36B4. Time of steroid treatment was chosen to get the optimal stimulation for a given gene. ALPL and G0S8 mRNA were analyzed after 6 h of treatment. IEX-1, FASN, and BCL2 were analyzed after 24 h of treatment. Cyclin A mRNA was analyzed after 24 h for GR responses or 48 h for PR responses.

HBE cells = assay: Apoptosis, sub-G1 quantification by flow cytometry in HBE cells; format: cell-based, human; conditions: 96 h
Method: as §1
After 96 h or 48 h of hormonal treatment, respectively, for HBE or MCF-7 and T-47D cells, cells were washed in PBS, matrix dissociated with accutase enzyme (PAA laboratory, Les Mureaux, France), and centrifuged 5 minutes at 1350 rpm. Cells were fixed and frozen at −20° C. in 70% ethanol. Before analysis, cells were washed in PBS and stained with 10 μg/ml propidium iodide in PBS (containing 0.835 U/ml RNase A) (Sigma, St Quentin Fallavier, France). For each sample at least 10 000 cells were counted in a BD LSR II flow cytometer (BD Biosciences, Le Pont de Claix, France). After gating out doublets and debris, cycle distribution was analyzed using the ModFit LT software (Verity Software House, USA).

[2] = Hormone concentrations in serum of pellet-treated athymic mice; format: in vivo; conditions: female, NMRI nu/nu athymic, mouse, other: steroid pellets grafted onto the neck, 20 mg pellet (P from day 14, UPA from day 1), day 28, read-out: concentration in mice serum (mean±SEM)
Method: Four weeks old ovariectomized female NMRInu/nu 20 athymic mice were purchased from Janvier laboratory (Le Genest Saint Isle, France). Breast tissues samples were obtained from 6 women (aged 29-42 years). Human mammary gland tissue was cut into 2×2×2 mm fragments and 4 fragments were then subcutaneously xenografted onto the back of 4 mice per group. Four treatment groups were performed: control, E2, E2+P and E2+P+UPA. Treatments were administered by grafting steroid pellets onto the neck of each mouse. The experimental conditions were initially determined by using a dose range of hormones mixed with cholesterol into the pellets. Blood sample assays were performed after 2 weeks and 4 weeks of treatment to measure plasmatic hormonal concentrations. Finally, the dose of 0.3 mg for E2 and 20 mg for P and UPA were used, as it provides the expected blood concentrations. For the control groups, pellets containing only cholesterol were used. To reproduce menstrual cycle conditions, mice were grafted on the first day of experiment with cholesterol, E2 and/or UPA containing pellets and on the fourteen day with cholesterol or progesterone containing pellets in control and E2 groups, or in E+P and E2+P+UPA groups, respectively. Twenty eight days after the start of experiment, mice were sacrificed. Blood was collected for each mouse, and serum was frozen at −20° C. until hormone concentrations
Estradiol was measured by radioimmunoassay using Clinical Assays Estradiol-2 (Sorin Biomedica Diagnostics SpA, Saluggia, Italia). Progesterone levels were evaluated by UPLC-MSMS using Acquity UPLC and Quattro Premier XE (Waters, Milford Mass., USA).
UPA concentrations were measured using LC-MS/MS technique by MPI Research (State College, Pa., USA).

HBCx-34 tumors = assay: HBCx-34 human mammary ductal carcinoma xenograft tumor growth in nude mice; format: in vivo; conditions: UPA 130 mg/kg p.o., 42 days
Description: The xenograft model used in this study was HBCx-34. HBCx-34 is a mammary ductal carcinoma with wild type P53, no HER2 overexpression and PR and ERα overexpression. […] HBCx-34 has got no cachectic property.
HBCx-34 tumors (P14.0.0/2) were transplanted subcutaneously onto 5-10 mice (donor mice, passage (n-1), female athymic nude mice (Hsd:Athymic Nude-Fox1nu), 6- to 9-week-old, Harlan Laboratories (Gannat, France)). When these tumors reached 1000 to 2000 mm3 (between 60 to 78 days), donor mice were sacrificed by cervical dislocation, tumors were aseptically excised and dissected. After removing necrotic areas, tumors were cut into fragments measuring approximately 20 mm3 and transferred for 10 min maximum in sterile DMEM/F12 culture medium, without any additional components, before grafting.
Healthy mice aged 6 to 9 weeks and weighing at least 20 g were included in the study. Mice were anaesthetized with ketamine/xylazine, and then skin was aseptized with a chlorhexidine solution, incised at the level of the interscapular region, and a 20 mm3 tumor fragment was placed in the subcutaneous tissue. Skin was closed with clips.
(§2) Mice were allocated to different groups according to their tumor volume to give homogenous mean and median tumor volume in each treatment arms. Ten mice/group, with HBCx-34 tumors between 75 and 144 mm^3, were randomized according to their tumor volume into experimental groups, and treatments (UPA 130 mg/kg, p.o. or control vehicle) were initiated 33 days post implantation of the tumor for a total duration of 42 days.
Tumor volume was evaluated biweekly during all the experimental period. Tumors were collected at the end of treatment, weight and processed for analysis.

[3] = Tolerability and body weight in HBCx-34 tumor-bearing nude mice; format: in vivo; conditions: UPA 130 mg/kg p.o., 42 days
Method: as §2
Animals were weighted biweekly during all the experimental period. Toxicity of the different treatments was determined as body weight loss.

CC(=O)O[C@]1(C(C)=O)CCC2C3CCC4=CC(=O)CCC4=C3[C@@H](c3ccc(N(C)C)cc3)C[C@@]21C (stereo partly drawn) [UPA, 17[…]-acetoxy-11[…]-[4-N,N-dimethylamino-phenyl)-19-norpregna-4,9-diene-3,20-dione]
ALPL mRNA expression ([1]; P and/or UPA 100 nM, 6 h): totally inhibited the strong P mediated induction of ALPL transcript
FASN mRNA expression ([1]; P and/or UPA 100 nM, 24 h): able to prevent P induction of FASN mRNA expression
BCL2 mRNA expression (PR response) ([1]; P and/or UPA 100 nM, 24 h, p<0.01): antagonized the P inhibitory effect on this transcript
cyclin A mRNA expression (PR response) ([1]; P and/or UPA 100 nM, 48 h): reversed P-induced cyclin A mRNA down-regulation
PR agonist activity on PR target genes ([1]; UPA 100 nM alone): did not display any PR agonist activity
cell apoptosis (sub-G1 percentage), compound alone (HBE cells; 100 nM): had no apoptotic or survival properties by itself
effect of UPA on DEX-mediated anti-apoptotic effect (HBE cells; DEX 100 nM + UPA 100 nM): both hormones activities were reversed
effect of UPA on P-mediated apoptosis (HBE cells; P 100 nM + UPA 100 nM): both hormones activities were reversed
concentration at 28 days [2]: 63.5 ± 10.5 ng/mL
ratio of TV in treated vs. control group (T/C) (HBCx-34 tumors): 53%
increase in mean tumor volume (TV) at the end of treatment (HBCx-34 tumors; control 4.63-fold): 2.17 fold
mean TV at sacrifice (HBCx-34 tumors; control 625.0±108.6 mm^3): 332.0±61.0 mm^3
body weight loss [3]: no significant body weight loss
tolerability of treatment [3]: well tolerated
treatment related clinical observation [3]: No treatment related clinical observation
